Experimental data from patent US9724347B2, “1-pyrazolyl-3-(4-((2-anilinopyrimidin-4-yl)oxy)napththalen-1-yl) ureas as P38 MAP knase inhibitors” (Respivert Ltd., priority 2011, dated 2017).
pIC50: −log10 of the molar value.

Assays:
GSK 3α enzyme isoform = GSK 3α enzyme isoform (Homo sapiens (Human), UniProt P49840); test: GSK 3α enzyme inhibition (FRET, Z-LYTE); format: biochemical; conditions: read-out: IC50 Values for Enzyme Inhibition GSK3α
In short: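 Human GSK3α (500 ng/mL stock) was preincubated 2 h at RT with compound (stocks 4, 0.4, 0.04 or 0.004 μg/mL), then given FRET peptide (8 μM stock) and ATP (40 μM stock) for 1 h. After 1 h protease development, the coumarin/fluorescein emission ratio gave phosphorylation level.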

d-U937 cells = test: Cell viability: MTT assay; format: cell-based, human; conditions: 1 μg/mL
In short: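 Differentiated U937 cells exposed to compound at 1 or 10 μg/mL final, either 4 h in 5% FCS RPMI1640 or 24 h in 10% FCS RPMI1640. After medium replacement, MTT added 1 h, formazan dissolved in DMSO, A550 read. % viability loss vs 0.5% DMSO vehicle; apparent viability gain shown as negative %.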

p38MAPKγ (MAPK12) = p38MAPKγ (MAPK12) (Homo sapiens (Human), UniProt P53778); test: p38 MAPKγ enzyme inhibition (FRET, Z-LYTE); format: biochemical
Sequence of p38MAPKγ (MAPK12) (P53778 whole entry): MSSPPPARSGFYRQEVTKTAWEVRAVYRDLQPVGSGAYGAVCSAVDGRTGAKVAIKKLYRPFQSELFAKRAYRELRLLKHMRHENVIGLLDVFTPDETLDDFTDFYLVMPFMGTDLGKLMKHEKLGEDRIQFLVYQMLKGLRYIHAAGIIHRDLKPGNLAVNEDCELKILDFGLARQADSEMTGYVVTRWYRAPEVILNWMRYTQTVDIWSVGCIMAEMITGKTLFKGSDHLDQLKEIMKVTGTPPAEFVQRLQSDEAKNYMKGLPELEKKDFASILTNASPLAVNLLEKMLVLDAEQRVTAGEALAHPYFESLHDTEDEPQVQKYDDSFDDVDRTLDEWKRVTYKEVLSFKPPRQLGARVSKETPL
In short: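 Z-LYTE FRET kinase format on donor/acceptor-labeled synthetic peptide; protease development 1 hr cleaves only non-phosphorylated peptide. Phosphorylation derived from coumarin/fluorescein emission ratio, low ratio indicating high phosphorylation.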

[1] = system: HRV IL-8 release (BEAS2B); test: Rhinovirus-induced IL-8 release in BEAS2B cells; format: cell-based, human; conditions: at 0.04 μg/mL
Method: Human rhinovirus RV16 was obtained from the American Type Culture Collection (Manassas, Va.). Viral stocks were generated by infecting Hela cells with HRV until 80% of the cells were cytopathic.
BEAS2B cells were infected with HRV at an MOI of 5 and incubated for 2 hr at 33° C. with gentle shaking for to promote absorption. The cells were then washed with PBS, fresh media added and the cells were incubated for a further 72 hr. The supernatant was collected for assay of IL-8 concentrations using a Duoset ELISA development kit (R&D systems, Minneapolis, Minn.).
The level of cell surface ICAM-1 expression was determined by cell-based ELISA. At 72 hr after infection, cells were fixed with 4% formaldehyde in PBS. After quenching endogenous peroxidase by adding 0.1% sodium azide and 1% hydrogen peroxide, wells were washed with wash-buffer (0.05% Tween in PBS: PBS-Tween). […] The ICAM-1 signal was detected by adding substrate and reading at 450 nm with a reference wavelength of 655 nm using a spectrophotometer. The wells were then washed with PBS-Tween and total cell numbers in each well were determined by reading absorbance at 595 nm after Crystal Violet staining and elution by 1% SDS solution. The measured OD450-655 readings were corrected for cell number by dividing with the OD595 reading in each well. […]

[2] = system: ICAM-1 expression in BEAS2B cells; test: Poly I:C-induced ICAM-1 expression in BEAS2B cells; format: cell-based, human; conditions: Homo sapiens, BEAS-2B, read-out: PolyIC/ICAM1 IC50 (BEAS2B)
In short: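 BEAS2B human bronchial epithelial cells pre-incubated 2 h with compound, then transfected with 1 μg/mL poly I:C plus Oligofectamine. After 18 h, surface ICAM-1 measured by cell-based ELISA (OD450–655), normalised to crystal violet cell count (OD595). Inhibition calculated against vehicle control.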

HRV16 = HRV16 induced CPE in MRC5 cells; format: cell-based, human rhinovirus; conditions: at 0.04 μg/mL
Method: The supernatants were aspirated, and then fresh media added followed by incubation for 4 days. Where appropriate, cells were pre-incubated with compound or DMSO for 2 hr, and the compounds and DMSO added again after washout of the virus.
The percentage inhibition for each well was calculated. The IC50 value was calculated from the concentration-response curve generated by the serial dilutions of the test compounds.

[3] = molecular target: p38 MAPKα isoform (MAPK14) (Homo sapiens (Human), UniProt Q16539); test: p38 MAPKα enzyme inhibition (FRET, Z-LYTE); format: biochemical
Sequence of p38 MAPKα isoform (MAPK14) (Q16539 whole entry, canonical isoform): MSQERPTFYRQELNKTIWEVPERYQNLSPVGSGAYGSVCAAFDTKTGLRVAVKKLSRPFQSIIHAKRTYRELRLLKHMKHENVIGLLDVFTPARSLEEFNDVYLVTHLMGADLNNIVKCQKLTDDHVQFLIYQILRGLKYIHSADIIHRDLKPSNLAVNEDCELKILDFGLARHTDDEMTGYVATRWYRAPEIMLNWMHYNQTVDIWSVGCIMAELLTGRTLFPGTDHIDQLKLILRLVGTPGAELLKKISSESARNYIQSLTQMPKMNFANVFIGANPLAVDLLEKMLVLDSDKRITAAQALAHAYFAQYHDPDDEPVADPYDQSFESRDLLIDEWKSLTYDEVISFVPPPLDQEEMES

A/J mice = test: Cigarette smoke model; format: in vivo; conditions: for CXCL1 in BALF, % inhibition / Cell numbers in BALF, Macrophage / Cell numbers in BALF, Macrophage, % inhibition / Cell numbers in BALF, Neutrophil / Cell numbers in BALF, Neutrophil, % inhibition: tobacco smoke
Method: A/J mice (males, 5 weeks old) were exposed to cigarette smoke (4% cigarette smoke, diluted with air) for 30 min/day for 11 days using a Tobacco Smoke Inhalation Experiment System for small animals (Model SIS-CS; Sibata Scientific Technology, Tokyo, Japan). Test substances were administered intra-nasally (35 μL of solution in 50% DMSO/PBS) once daily for 3 days after the final cigarette smoke exposure. At 12 hr after the last dosing, each of the animals was anesthetized, the trachea cannulated and bronchoalveolar lavage fluid (BALF) was collected. The numbers of alveolar macrophages and neutrophils were determined by FACS analysis (EPICS® ALTRA II, Beckman Coulter, Inc., Fullerton, Calif., USA) using anti-mouse MOMA2 antibody (macrophage) or anti-mouse 7/4 antibody (neutrophil). BALF was centrifuged and the supernatant was collected. The level of keratinocyte chemoattractant (KC; CXCL1) in BALF was quantitated using a Quentikine® mouse KC ELISA kit (R&D systems, Inc., Minneapolis, Minn., USA).

PBMC cells = test: Cell mitosis assay; format: cell-based, human
Method: Peripheral blood mononucleocytes (PBMCs) from healthy subjects were separated from whole blood (Quintiles, London, UK) using a density gradient (Histopaque®-1077, Sigma-Aldrich, Poole, UK). The PBMCs (3 million cells per sample) were subsequently treated with 2% PHA (Sigma-Aldrich, Poole, UK) for 48 hr, followed by a 20 hr exposure to varying concentrations of test compounds. At 2 hr before collection, PBMCs were treated with demecolcine (0.1 μg/mL; Invitrogen, Paisley, UK,) to arrest cells in metaphase. To observe mitotic cells, PBMCs were permeabilised and fixed by adding Intraprep (50 μL; Beckman Coulter, France), and stained with anti-phospho-histone 3 ([…]; #9701; Cell Signalling, Danvers, Mass.) and propidium iodide (1 mg/mL; Sigma-Aldrich, Poole, UK,) as previously described (Muehlbauer P. A. and Schuler M. J., Mutation Research, 2003, 537:117-130). Fluorescence was observed using an ATTUNE flow cytometer (Invitrogen, Paisley, UK), gating for lymphocytes.

Balb/c mice = test: LPS-induced neutrophil accumulation in mice; format: in vivo
Method: […] At T=0, mice were placed into an exposure chamber and exposed to LPS (7.0 mL, 0.5 mg/mL solution in PBS) for 30 min). After a further 8 hr the animals were anesthetized, their tracheas cannulated and BALF extracted by infusing and then withdrawing from their lungs 1.0 mL of PBS via the tracheal catheter. Total and differential white cell counts in the BALF samples were measured using a Neubaur haemocytometer. Cytospin smears of the BALF samples were prepared by centrifugation at 200 rpm for 5 min at RT and stained using a DiffQuik stain system (Dade Behring). Cells were counted using oil immersion microscopy. Data for neutrophil numbers in BAL are shown as mean±S.E.M. (standard error of the mean). The percentage inhibition of neutrophil accumulation was calculated for each treatment relative to vehicle treatment.

GSK3α = GSK3α (Homo sapiens (Human), UniProt P49840); test: Kinase binding, active site-directed competition binding (DiscoverX)
Sequence of GSK3α (P49840 whole entry): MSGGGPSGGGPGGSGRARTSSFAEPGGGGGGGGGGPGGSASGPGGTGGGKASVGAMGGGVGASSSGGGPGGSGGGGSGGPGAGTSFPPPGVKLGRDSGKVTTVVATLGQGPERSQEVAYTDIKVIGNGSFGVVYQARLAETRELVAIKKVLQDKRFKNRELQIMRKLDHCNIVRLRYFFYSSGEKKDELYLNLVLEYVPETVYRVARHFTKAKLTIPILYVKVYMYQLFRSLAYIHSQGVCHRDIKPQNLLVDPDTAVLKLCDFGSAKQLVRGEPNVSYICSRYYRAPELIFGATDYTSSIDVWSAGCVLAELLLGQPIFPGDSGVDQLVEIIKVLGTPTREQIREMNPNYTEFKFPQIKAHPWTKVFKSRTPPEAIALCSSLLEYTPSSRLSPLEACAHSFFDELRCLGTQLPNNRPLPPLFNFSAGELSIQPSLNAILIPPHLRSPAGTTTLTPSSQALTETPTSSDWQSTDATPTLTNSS

Sequence of GSK 3α enzyme isoform (P49840 whole entry, canonical isoform): as the sequence (P49840 whole entry) above

Cc1ccc(-n2nc(C(C)(C)C)cc2NC(=O)Nc2ccc(Oc3ccnc(Nc4ccccc4Cl)n3)c3ccccc23)cc1 [Example 6, 1-(3-(tert-butyl)-1-(p-tolyl)-1H-pyrazol-5-yl)-3-(4-((2-((2-chlorophenyl)amino)pyrimidin-4-yl)oxy)naphthalen-1-yl)urea]
pIC50 (GSK 3α enzyme isoform): < 4.79 | MTT Assay Cell viability at time point in d-U937 Cells (d-U937 cells; 4 h): −ve (−ve and +ve indicate the value is below and above respectively, the no significant effect threshold defined as 30% inhibition at 1 μg/mL at the time point indicated) | MTT Assay Cell viability at time point in d-U937 Cells (d-U937 cells; 24 h): −ve (−ve and +ve indicate the value is below and above respectively, the no significant effect threshold defined as 30% inhibition at 1 μg/mL at the time point indicated) | pIC50 (p38MAPKγ (MAPK12)): < 4.79 | HRV IL-8 (BEAS2B) % inhibition [1]: 77% | pIC50 [2]: 7.25 | HRV CPE (MRC5) % inhibition (HRV16): 46% | pIC50 [3]: 6.79

Cc1ccc(-n2nc(C(C)(C)C)cc2NC(=O)Nc2ccc(Oc3ccnc(Nc4ccccc4)n3)c3ccccc23)cc1 [Example 1, 1-(3-(tert-Butyl)-1-(p-tolyl)-1H-pyrazol-5-yl)-3-(4-(2-(phenylamino)pyrimidin-4-yloxy)naphthalen-1-yl)urea]
CXCL1 in BALF, % inhibition (A/J mice; 0.32 μg/mL intra-nasal): 0% | Cell numbers in BALF, Macrophage (A/J mice; 0.32 μg/mL intra-nasal): 13.3 ± 0.20 ×10^4/mL | Cell numbers in BALF, Macrophage, % inhibition (A/J mice; 0.32 μg/mL intra-nasal): 11% | Cell numbers in BALF, Neutrophil (A/J mice; 0.32 μg/mL intra-nasal): 12.4 ± 0.32 ×10^4/mL | Cell numbers in BALF, Neutrophil, % inhibition (A/J mice; 0.32 μg/mL intra-nasal): 12% | CXCL1 in BALF, % inhibition (A/J mice; 1.6 μg/mL intra-nasal): 26% | Cell numbers in BALF, Macrophage (A/J mice; 1.6 μg/mL intra-nasal): 11.6 ± 0.42 ×10^4/mL | Cell numbers in BALF, Macrophage, % inhibition (A/J mice; 1.6 μg/mL intra-nasal): 28% | Cell numbers in BALF, Neutrophil (A/J mice; 1.6 μg/mL intra-nasal): 10.5 ± 0.06 ×10^4/mL | Cell numbers in BALF, Neutrophil, % inhibition (A/J mice; 1.6 μg/mL intra-nasal): 29% | CXCL1 in BALF, % inhibition (A/J mice; 8.0 μg/mL intra-nasal): 41% | Cell numbers in BALF, Macrophage (A/J mice; 8.0 μg/mL intra-nasal): 10.1 ± 0.42 ×10^4/mL | Cell numbers in BALF, Macrophage, % inhibition (A/J mice; 8.0 μg/mL intra-nasal): 43% | Cell numbers in BALF, Neutrophil (A/J mice; 8.0 μg/mL intra-nasal): 9.1 ± 0.28 ×10^4/mL | Cell numbers in BALF, Neutrophil, % inhibition (A/J mice; 8.0 μg/mL intra-nasal): 41% | CXCL1 in BALF, % inhibition (A/J mice; 40 μg/mL intra-nasal): 76% | Cell numbers in BALF, Macrophage (A/J mice; 40 μg/mL intra-nasal): 7.9 ± 0.20 ×10^4/mL | Cell numbers in BALF, Macrophage, % inhibition (A/J mice; 40 μg/mL intra-nasal): 64% | Cell numbers in BALF, Neutrophil (A/J mice; 40 μg/mL intra-nasal): 7.9 ± 0.34 ×10^4/mL | Cell numbers in BALF, Neutrophil, % inhibition (A/J mice; 40 μg/mL intra-nasal): 52% | cigarette smoke induced CXCL1 (KC) production in BALF (in words) (A/J mice; mice): inhibited | macrophage accumulation in BALF induced by cigarette smoke (in words) (A/J mice; mice): dose-dependent inhibition | neutrophil accumulation in BALF induced by cigarette smoke (in words) (A/J mice; mice): dose-dependent inhibition | Mitosis Assay % inhibition in PBMC Cells (PBMC cells; 1 μg/mL): 13.7% | Mitosis Assay % inhibition in PBMC Cells (PBMC cells; 5 μg/mL): 31.3% | Neutrophil numbers in BALF, % inhibition (Balb/c mice; 0.05 mg/mL intra tracheal, pre-dose time 2 hr): 18% | Neutrophil numbers in BALF, % inhibition (Balb/c mice; 0.2 mg/mL intra tracheal, pre-dose time 2 hr): 48% | Neutrophil numbers in BALF, % inhibition (Balb/c mice; 1.0 mg/mL intra tracheal, pre-dose time 2 hr): 77% | Neutrophil numbers in BALF, % inhibition (Balb/c mice; 1.0 mg/mL intra tracheal, pre-dose time 8 hr): 48% | Neutrophil numbers in BALF, % inhibition (Balb/c mice; 1.0 mg/mL intra tracheal, pre-dose time 12 hr): 4% | effect on LPS-induced neutrophil accumulation (in words) (Balb/c mice; mice): dose dependent inhibition | duration of action (Balb/c mice; time course experiment, mice): long duration of action | MTT Assay Cell viability at time point in d-U937 Cells (d-U937 cells; 4 h): −ve (−ve and +ve indicate the value is below and above respectively, the no significant effect threshold defined as 30% inhibition at 1 μg/mL at the time point indicated) | MTT Assay Cell viability at time point in d-U937 Cells (d-U937 cells; 24 h): −ve (−ve and +ve indicate the value is below and above respectively, the no significant effect threshold defined as 30% inhibition at 1 μg/mL at the time point indicated) | inhibition of binding against GSK3α (in words) (GSK3α): without significant effect
